Measurements: PubChem BioAssay (NCI)
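Briefly, cells in 96-well plates were exposed to five compound concentrations for 48 h, and endpoints were estimated by linear interpolation. TGI is the concentration that stops growth completely.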

What was measured:
Test in all cases: NCI tumour cell line growth inhibition, 48 h
[1] = test system: MDA-MB-435
[2] = test system: NCI-H460 lung
[3] = test system: PC-3 prostate
[4] = test system: LOX IMVI melanoma
[5] = test system: ACHN renal
[6] = test system: NCI-H226 lung
[7] = test system: HCC-2998 colon
[8] = test system: 786-0 renal
[9] = test system: A498 renal
[10] = test system: SF-295 CNS
[11] = test system: HCT-116 colon
[12] = test system: SK-MEL-2 melanoma
[13] = test system: SF-539 CNS
[14] = test system: SK-MEL-5 melanoma
[15] = test system: SF-268 CNS
[16] = test system: CCRF-CEM leukemia
[17] = test system: MCF7 breast
[18] = test system: TK-10 renal
[19] = test system: MOLT-4 leukemia
[20] = test system: SNB-19 CNS
[21] = test system: EKVX NSCLC
[22] = test system: HL-60(TB) leukemia
[23] = test system: OVCAR-5 ovarian
[24] = test system: SR leukemia
[25] = test system: DU-145 prostate
[26] = test system: SK-OV-3 ovarian
[27] = test system: IGROV1 ovarian
[28] = test system: SW-620 colon
[29] = test system: UO-31 renal
[30] = test system: SN12C renal
[31] = test system: OVCAR-3 ovarian
[32] = test system: UACC-257 melanoma
[33] = test system: MALME-3M melanoma
[34] = test system: UACC-62 melanoma
[35] = test system: KM12 colon
[36] = test system: RPMI-8226 leukemia
[37] = test system: HOP-92 NSCLC
[38] = test system: OVCAR-8 ovarian
[39] = test system: T-47D breast
[40] = test system: HCT-15 colon
[41] = test system: SK-MEL-28 melanoma
[42] = test system: M14 melanoma
[43] = test system: RXF 393 renal
[44] = test system: MDA-MB-231 breast
[45] = test system: HS 578T breast
[46] = test system: BT-549 breast
[47] = test system: MDA-N
[48] = test system: K-562 leukemia
[49] = test system: U251 CNS
[50] = test system: SNB-75 CNS
[51] = test system: HOP-62 NSCLC
[52] = test system: NCI-H23 lung
[53] = test system: NCI-H522 lung
[54] = test system: CAKI-1 renal
[55] = test system: COLO 205 colon
[56] = test system: HT29 colon
[57] = test system: A549 NSCLC
[58] = test system: NCI/ADR-RES ovarian

Measured: TGI

CC1CN=C(Nc2ccccc2)S1 (stereo not drawn)
> 100 µM: all assays above
